{
  "source": "paper PMC8042770",
  "about": "“Odorant Receptors for Detecting Flowering Plant Cues Are Functionally Conserved across Moths and Butterflies” (Molecular Biology and Evolution, 2020)",
  "key": {"HarmOR42": {"target": "HarmOR42 (Helicoverpa armigera, UniProt A0A7T3KAF6)", "sequence (A0A7T3KAF6 entry or part of it)": "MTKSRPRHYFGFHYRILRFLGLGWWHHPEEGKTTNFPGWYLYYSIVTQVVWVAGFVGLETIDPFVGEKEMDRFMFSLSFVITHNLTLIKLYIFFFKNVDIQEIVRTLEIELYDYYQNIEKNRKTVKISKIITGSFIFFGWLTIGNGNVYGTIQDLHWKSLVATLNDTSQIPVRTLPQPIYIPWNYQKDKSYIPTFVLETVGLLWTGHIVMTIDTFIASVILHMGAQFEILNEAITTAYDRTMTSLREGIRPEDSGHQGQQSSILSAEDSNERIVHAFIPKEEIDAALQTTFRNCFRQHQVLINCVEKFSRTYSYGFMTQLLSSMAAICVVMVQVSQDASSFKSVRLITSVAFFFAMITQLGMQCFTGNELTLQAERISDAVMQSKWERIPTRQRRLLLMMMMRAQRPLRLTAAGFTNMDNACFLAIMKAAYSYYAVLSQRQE", "assay": "Xenopus oocyte two-electrode voltage clamp, HarmOR42 + Orco", "type": "cell-based", "conditions": "67 odorants at 10^−4 M", "description": "In preliminary screening, we used a high dosage (10^−4 M) of odorants. […] Most functional ORs responded robustly to multiple odorants. The strongest response (up to ∼6,000 nanoampere, nA) we detected was that of HarmOR42 toward the aromatic compound PAA. Further, the response profiles of the 28 HarmORs appeared to be highly differentiated, with no apparent overlap in their tuning spectra (with the exception of HarmOR12 and 36) according to functional cluster analysis (fig. 1A).\n(§1) In order to expand our analysis on the response properties of HarmORs, we conducted dose–response analyses for the 28 functional HarmORs. […] Six HarmORs (OR3, 22, 48, 50, 56, and 66) could not be activated by any ligand at 10^−5 M. For the other 22 HarmORs, dose–response curves were generated and EC50 values of their major ligands were calculated (fig. 2A and supplementary table S2, Supplementary Material online). The HarmOR repertoire was highly efficient in terpene detection, since the lowest EC50 values were obtained for such compounds. Many of these terpenes have been proposed to be defensive chemicals of plants. […] DMNT is also one of the oviposition deterring compounds found in larval frass of some Lepidoptera species such as S. littoralis ([Anderson et al. 1993]).\n(§2) Functional characterization of individual ORs was performed by heterologous expression in Xenopus oocytes combined with a two-electrode voltage-clamp system ([Wang et al. 2010]). Briefly, the full-length gene of each OR and Orco were subcloned into the eukaryotic expression vector pT7TS. cRNAs were generated from linearized expression vectors using the mMESSAGE mMACHINE T7 kit (Ambion, Austin, TX). Then, the cRNA mixture of ORx and Orco (27.6 ng each) was injected (Nanoliter 2010, WPI Inc., Sarasota, FL) into oocytes (stage V–VII). The respective Orcos of different species were used for functional studies of OR42 orthologs except for the four butterfly species (V. tameamea, P. xuthus, D. plexippus, and P. rapae), in which we used the Orco from P. xuthus. After incubation in nutrient solution at 18 °C for 3–5 days, the response profile of each oocyte to multiple plant odorants was recorded via a two-electrode voltage clamp (OC-725C oocyte clamp, Warner Instruments, Hamden, CT) at a holding potential of −80 mV. Data were acquired by using a Digidata 1440 A and were analyzed by pCLAMP 10.2 software (Axon Instruments Inc., Union City, CA).\n(§3) Stock solutions of each odorant were prepared at 1 M using DMSO as a solvent, and each odorant was diluted in 1× Ringer’s solution to the indicated concentrations for electrophysiological recording. For functional screening of each HarmOR, a panel of 67 odorants belonging to three types of chemical classes: terpenes, aromatics, and aliphatics (short-chain fatty acid) were used (supplementary table S1, Supplementary Material online). For functional studies of OR42 orthologs from different species, six odorants including PAA, benzaldehyde, (E)-2-hexen-1-al, cinnamaldehyde, 2-phenylethanol, and heptanal were used."}, "HarmOR59": {"target": "HarmOR59 (Helicoverpa armigera, UniProt A0A7T3KAU6)", "sequence (A0A7T3KAU6 entry or part of it)": "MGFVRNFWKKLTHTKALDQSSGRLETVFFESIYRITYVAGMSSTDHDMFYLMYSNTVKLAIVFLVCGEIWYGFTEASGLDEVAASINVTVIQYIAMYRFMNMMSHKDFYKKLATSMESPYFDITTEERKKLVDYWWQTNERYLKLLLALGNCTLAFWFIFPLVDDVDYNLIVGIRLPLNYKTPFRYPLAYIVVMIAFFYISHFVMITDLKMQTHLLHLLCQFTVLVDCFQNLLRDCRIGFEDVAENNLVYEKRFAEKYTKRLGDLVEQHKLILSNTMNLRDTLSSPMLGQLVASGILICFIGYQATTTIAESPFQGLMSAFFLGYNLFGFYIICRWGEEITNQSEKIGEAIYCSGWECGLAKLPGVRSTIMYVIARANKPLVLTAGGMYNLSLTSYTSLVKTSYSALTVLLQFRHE", "assay": "Xenopus oocyte two-electrode voltage clamp, HarmOR59 + Orco", "type": "cell-based", "description": "as §1, §2, §3"}, "[1]": {"tested_on": "H. armigera moth antennae", "assay": "Electroantennography (EAG), wild-type vs HarmOR42 knock-out moths", "type": "in vivo, Helicoverpa armigera", "conditions": "single odorants, 1 μg", "description": "We next conducted a loss-of-function study by generating a HarmOR42-lacking H. armigera strain by CRISPR/Cas9 targeting the first coding exon. Homozygous mutants were obtained with a large segment deletion of 203 bp and a 6-bp nonhomologous insertion in the genome (fig. 6B), introducing a premature stop codon in the coding sequence. […] The most likely hypothesis is that HarmOR42 is not the major receptor for sensing this compound in H. armigera. As a control, we tested the response of male moths to the sex pheromone component Z11-16: Ald that is not a ligand of HarmOR42. As expected, we observed no difference between the EAG responses of mutant and wild-type moths to this compound.\nThe antennae of 2- to 3-day-old virgin male and female moths were cut at the base of the flagellum. After removing the tip, one antenna was inserted between two glass electrodes filled with 0.1 M KCl solution. In each test, a 10-μl solution of each odorant was added onto a piece of filter paper (0.5 cm × 0.5 cm) and then inserted into a Pasteur pipette. About 100 ng/μl stock solutions of individual odorants and different doses of the mixture IAC were prepared with paraffin oil. A continuous airflow of 30 ml/s was produced by a stimulus controller (CS-55, Syntech, Kirchzarten, Germany). Odor stimulation was controlled by a puff of purified air (0.2 s at 10 ml/s airflow) from the CS-55. EAG signals were amplified with a 10× AC/DC headstage preamplifier (Syntech) and further acquired with an Intelligent Data Acquisition Controller (IDAC-4-USB, Syntech) ([Cao et al. 2016]). The signals were recorded, monitored, and analyzed using Syntech EAG-software (Syntech, Germany). The EAG response values for each compound were calculated by subtracting the value of the same antennae corresponding to a solvent blank of paraffin oil."}, "HarmOR repertoire": {"tested_on": "HarmOR repertoire", "assay": "Responses of the 28 functional HarmORs across odorant doses (PCA of oocyte currents)", "type": "cell-based, Helicoverpa armigera", "conditions": "odorant 10^−7 M", "description": "Vectors quantifying the responses of the 28 ORs to each odorant were projected onto a 3D landscape. This 3D representation captured 78.34% (10^−4 M), 65.11% (10^−5 M), 68.89% (10^−6 M), and 84.52% (10^−7 M) of the variation in the original 28D data set across different odorant concentrations. […] In addition, the capacity of the H. armigera odor space was highly dependent on odorant concentration. As the concentrations of odorants decreased, their positions in the odor space converged, with the ability to discriminate different odorants diminishing.\nas §2, §3\nGraphs and data statistics of OR response spectra, dose responses, EAG, and behavioral experiments were generated by Prism 7 (GraphPad Software, La Jolla, CA). A heat map was generated in Excel 2010 (Microsoft Corporation, WA). […] For tuning breadth analysis, the kurtosis values (K) were calculated by SPSS 22 (SPSS Inc., Chicago, IL) and were used to define the tuning spectra width, where smaller K values represent broader tuning spectra (fig. 1B). […]"}, "HarmOR36": {"target": "HarmOR36 (Helicoverpa armigera, UniProt A0A7T3N0K7)", "sequence (A0A7T3N0K7 entry or part of it)": "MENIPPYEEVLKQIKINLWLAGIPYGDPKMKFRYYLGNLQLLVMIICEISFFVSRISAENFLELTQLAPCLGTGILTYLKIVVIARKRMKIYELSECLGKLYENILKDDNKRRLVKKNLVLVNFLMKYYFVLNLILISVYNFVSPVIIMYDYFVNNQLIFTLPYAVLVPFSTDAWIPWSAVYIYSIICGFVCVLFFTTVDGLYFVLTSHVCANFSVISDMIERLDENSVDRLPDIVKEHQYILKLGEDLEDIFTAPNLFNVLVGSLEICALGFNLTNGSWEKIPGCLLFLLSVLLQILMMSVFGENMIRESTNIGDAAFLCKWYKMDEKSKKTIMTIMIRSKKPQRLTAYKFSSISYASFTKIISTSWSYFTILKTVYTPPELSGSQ", "assay": "Xenopus oocyte two-electrode voltage clamp, HarmOR36 + Orco", "type": "cell-based", "conditions": "HarmOR36; dose response in oocytes; unit M; read-out: EC50", "description": "as §1, §2, §3"}, "HarmOR40": {"target": "T1, HarmOR40 (Helicoverpa armigera, UniProt A0A7T3KBF4)", "T1 sequence (A0A7T3KBF4 1-401)": "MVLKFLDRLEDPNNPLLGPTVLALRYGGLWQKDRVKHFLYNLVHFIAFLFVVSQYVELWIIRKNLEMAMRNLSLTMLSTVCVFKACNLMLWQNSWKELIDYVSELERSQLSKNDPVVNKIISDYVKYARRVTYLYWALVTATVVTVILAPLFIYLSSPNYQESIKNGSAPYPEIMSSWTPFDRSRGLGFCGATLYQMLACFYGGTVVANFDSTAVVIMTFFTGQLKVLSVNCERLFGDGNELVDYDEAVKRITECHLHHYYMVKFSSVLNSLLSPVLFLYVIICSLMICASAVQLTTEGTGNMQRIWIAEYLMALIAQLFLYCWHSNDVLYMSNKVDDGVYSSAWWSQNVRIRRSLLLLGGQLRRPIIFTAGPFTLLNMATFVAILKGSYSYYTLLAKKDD", "assay": "Xenopus oocyte two-electrode voltage clamp, HarmOR40 + Orco", "type": "cell-based", "conditions": "HarmOR40, dose response in oocytes, unit M printed in text only, read-out: EC50", "description": "as §1, §2, §3"}, "HarmOR23": {"target": "HarmOR23 (Helicoverpa armigera, UniProt A0A7T3KAE3)", "sequence (A0A7T3KAE3 entry or part of it)": "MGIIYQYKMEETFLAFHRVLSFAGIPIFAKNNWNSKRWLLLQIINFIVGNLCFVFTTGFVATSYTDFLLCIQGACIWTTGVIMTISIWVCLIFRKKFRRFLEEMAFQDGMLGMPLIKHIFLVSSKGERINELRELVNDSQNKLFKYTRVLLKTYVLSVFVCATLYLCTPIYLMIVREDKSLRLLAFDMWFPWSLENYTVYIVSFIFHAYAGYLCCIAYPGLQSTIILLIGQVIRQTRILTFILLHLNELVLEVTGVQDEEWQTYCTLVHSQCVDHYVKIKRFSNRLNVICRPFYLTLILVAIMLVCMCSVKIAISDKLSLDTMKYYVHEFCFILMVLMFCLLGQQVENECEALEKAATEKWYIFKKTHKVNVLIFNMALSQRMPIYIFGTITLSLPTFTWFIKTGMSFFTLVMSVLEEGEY", "assay": "Xenopus oocyte two-electrode voltage clamp, HarmOR23 + Orco", "type": "cell-based", "conditions": "dose response in oocytes, unit M printed in text only", "description": "as §1\nas §2, with “CA). […]” for “CA).”"}, "HarmOR31": {"target": "HarmOR31 (Helicoverpa armigera, UniProt A0A7T3N2E9)", "sequence (A0A7T3N2E9 entry or part of it)": "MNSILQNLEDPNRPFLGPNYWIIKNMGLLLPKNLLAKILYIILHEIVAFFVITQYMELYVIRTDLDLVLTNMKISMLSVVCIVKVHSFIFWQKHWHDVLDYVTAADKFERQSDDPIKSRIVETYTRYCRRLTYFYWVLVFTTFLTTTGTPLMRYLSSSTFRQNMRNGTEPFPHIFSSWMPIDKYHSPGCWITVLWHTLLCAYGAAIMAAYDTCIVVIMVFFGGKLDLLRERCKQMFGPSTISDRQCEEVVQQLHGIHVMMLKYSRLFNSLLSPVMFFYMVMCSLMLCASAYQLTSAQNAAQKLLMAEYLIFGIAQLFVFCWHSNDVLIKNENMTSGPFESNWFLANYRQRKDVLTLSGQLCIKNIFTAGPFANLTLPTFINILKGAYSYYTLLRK", "assay": "Xenopus oocyte two-electrode voltage clamp, HarmOR31 + Orco", "type": "cell-based", "conditions": "HarmOR31; dose response in oocytes; unit M; read-out: EC50", "description": "In order to expand our analysis on the response properties of HarmORs, we conducted dose–response analyses for the 28 functional HarmORs. […] Many of these terpenes have been proposed to be defensive chemicals of plants.\nBriefly, the full-length gene of each OR and Orco were subcloned into the eukaryotic expression vector pT7TS. cRNAs were generated from linearized expression vectors using the mMESSAGE mMACHINE T7 kit (Ambion, Austin, TX). […] The respective Orcos of different species were used for functional studies of OR42 orthologs except for the four butterfly species (V. tameamea, P. xuthus, D. plexippus, and P. rapae), in which we used the Orco from P. xuthus.\nas §3"}, "HarmOR27": {"target": "T2, HarmOR27 (Helicoverpa armigera, UniProt A0A7T3KAG1)", "T2 sequence (A0A7T3KAG1 1-426)": "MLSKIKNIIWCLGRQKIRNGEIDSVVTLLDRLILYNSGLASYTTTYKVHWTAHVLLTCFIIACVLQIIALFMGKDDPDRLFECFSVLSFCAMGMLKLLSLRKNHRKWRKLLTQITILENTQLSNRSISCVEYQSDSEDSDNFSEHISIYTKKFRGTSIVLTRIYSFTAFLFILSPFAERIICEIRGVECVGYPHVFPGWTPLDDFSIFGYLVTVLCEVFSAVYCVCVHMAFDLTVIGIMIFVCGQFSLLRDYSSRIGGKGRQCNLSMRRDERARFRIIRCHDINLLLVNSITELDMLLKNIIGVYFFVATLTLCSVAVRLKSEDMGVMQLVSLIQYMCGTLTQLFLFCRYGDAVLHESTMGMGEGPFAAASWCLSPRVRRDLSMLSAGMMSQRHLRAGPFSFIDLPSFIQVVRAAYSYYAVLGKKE", "assay": "Xenopus oocyte two-electrode voltage clamp, HarmOR27 + Orco", "type": "cell-based", "conditions": "HarmOR27; dose response in oocytes; unit M; read-out: EC50", "description": "as §1, §2, §3"}, "HarmOR52": {"target": "HarmOR52 (Helicoverpa armigera, UniProt A0A7T3KAH2)", "sequence (A0A7T3KAH2 entry or part of it)": "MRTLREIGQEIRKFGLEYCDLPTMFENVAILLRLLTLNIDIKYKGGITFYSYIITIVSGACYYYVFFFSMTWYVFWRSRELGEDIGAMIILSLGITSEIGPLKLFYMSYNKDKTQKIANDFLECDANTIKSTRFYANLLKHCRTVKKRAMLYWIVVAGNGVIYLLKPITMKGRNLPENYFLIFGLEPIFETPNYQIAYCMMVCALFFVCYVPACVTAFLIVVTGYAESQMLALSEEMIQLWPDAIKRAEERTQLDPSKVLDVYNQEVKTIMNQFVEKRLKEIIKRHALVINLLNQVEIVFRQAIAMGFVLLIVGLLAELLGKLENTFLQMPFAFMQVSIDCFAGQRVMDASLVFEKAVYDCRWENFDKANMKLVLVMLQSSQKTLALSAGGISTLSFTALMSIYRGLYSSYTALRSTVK", "assay": "Xenopus oocyte two-electrode voltage clamp, HarmOR52 + Orco", "type": "cell-based", "description": "as §1, §2, §3"}},
  "note": "Where two headings read alike, the source gives them in different places.",
  "data": [
    {"molecule": "OCCc1ccccc1", "note": "[2-Phenylethanol]", "values": [
      {"measurement": "ligand tuning of HarmOR42", "setting": "HarmOR42", "result": "minor ligand"},
      {"measurement": "EC50", "setting": "HarmOR59; HarmOR59, dose response in oocytes, unit M, read-out: EC50", "result": 0.00291, "unit": "mM"},
      {"measurement": "EAG response of HarmOR42 knock-out mutants compared with wild-type moths", "setting": "[1]", "result": "no significant difference"},
      {"measurement": "response of the HarmOR repertoire", "setting": "HarmOR repertoire", "result": "still responded"}
    ]},
    {"molecule": "CCC(C)(O)CCCC(C)C", "note": "(stereo not drawn) [3,7-Dimethyl-3-octanol]", "values": [
      {"measurement": "EC50", "setting": "HarmOR36", "result": 2910, "unit": "nM"}
    ]},
    {"molecule": "CCC/C=C/C=O", "note": "[(E)-2-Hexen-1-al]", "values": [
      {"measurement": "EC50", "setting": "HarmOR59", "result": 3.78, "unit": "mM"}
    ]},
    {"molecule": "Farnesene", "values": [
      {"measurement": "EC50", "setting": "HarmOR40; listed as farnesene", "result": "< 10", "unit": "µM"},
      {"measurement": "EC50", "setting": "HarmOR40", "result": 7.9, "unit": "µM"},
      {"measurement": "EC50", "setting": "HarmOR23", "result": 4.79, "unit": "µM"},
      {"measurement": "EC50", "setting": "HarmOR23; listed as farnesene", "result": "< 10", "unit": "µM"}
    ]},
    {"molecule": "CC/C=C\\CCOC(C)=O", "note": "[(Z)-3-Hexenyl acetate]", "values": [
      {"measurement": "EC50", "setting": "HarmOR31", "result": 7.51, "unit": "µM"}
    ]},
    {"molecule": "(±)-Citronellal", "values": [
      {"measurement": "EC50", "setting": "HarmOR27", "result": 333, "unit": "µM"}
    ]},
    {"molecule": "OCc1ccccc1", "note": "[Benzyl alcohol]", "values": [
      {"measurement": "EC50", "setting": "HarmOR52", "result": 6.87, "unit": "µM"}
    ]},
    {"molecule": "CCC/C=C\\CO", "note": "[(Z)-2-Hexen-1-ol]", "values": [
      {"measurement": "EC50", "setting": "HarmOR52", "result": 16.5, "unit": "µM"}
    ]},
    {"molecule": "CC(=O)OC/C=C(\\C)CCC=C(C)C", "note": "[Geranyl acetate]", "values": [
      {"measurement": "EC50", "setting": "HarmOR40", "result": 7.69, "unit": "µM"},
      {"measurement": "EC50", "setting": "HarmOR23", "result": 5.1, "unit": "µM"}
    ]},
    {"molecule": "CCC/C=C/COC(C)=O", "note": "[(E)-2-Hexenyl acetate]", "values": [
      {"measurement": "EC50", "setting": "HarmOR31", "result": 5.02, "unit": "µM"}
    ]},
    {"molecule": "CC/C=C\\CC1=C(C)CCC1=O", "note": "[cis-Jasmone]", "values": [
      {"measurement": "EC50", "setting": "HarmOR27", "result": 78.6, "unit": "µM"}
    ]}
  ]
}
